By IC50 is commonly meant the point on the concentration scale where inhibition reaches its midpoint. Higher therefore signals lower potency.

SMILES strings stand for the structures.

SHP2, sequence (Q06124 whole entry, the tested form may be a part): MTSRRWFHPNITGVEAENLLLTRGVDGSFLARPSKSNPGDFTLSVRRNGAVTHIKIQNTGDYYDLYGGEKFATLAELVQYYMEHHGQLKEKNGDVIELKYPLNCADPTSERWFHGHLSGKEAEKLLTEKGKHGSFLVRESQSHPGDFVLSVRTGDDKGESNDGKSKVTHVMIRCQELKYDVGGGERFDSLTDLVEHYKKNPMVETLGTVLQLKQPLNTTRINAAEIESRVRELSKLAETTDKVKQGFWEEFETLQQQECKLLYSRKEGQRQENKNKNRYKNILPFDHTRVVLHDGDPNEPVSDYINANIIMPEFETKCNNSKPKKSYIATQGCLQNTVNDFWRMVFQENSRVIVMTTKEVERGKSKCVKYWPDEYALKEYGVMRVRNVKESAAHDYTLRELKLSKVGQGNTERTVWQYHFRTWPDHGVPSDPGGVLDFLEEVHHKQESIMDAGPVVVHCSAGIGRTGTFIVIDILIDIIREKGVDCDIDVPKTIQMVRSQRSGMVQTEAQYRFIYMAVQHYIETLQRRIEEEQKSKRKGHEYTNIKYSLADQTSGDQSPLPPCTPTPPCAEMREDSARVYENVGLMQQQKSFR

This experiment has as its target SHP2 (Homo sapiens (Human), UniProt Q06124). Put plainly: SHP2 Allosteric Inhibition Assay (DiFMUP substrate, bisphos-IRS1 peptide activation). In kind it is biochemical. As to conditions: 0.5 μM bisphos-IRS1 peptide, 100 uM DiFMUP, room temperature. As for the experimental part: At the basal state, SHP2 is auto-inhibited and access of substrates to the catalytic site is blocked by the […] interactions between the SH2 domains and the PTP domain. When bis-tyrosyl-phosphorylated peptides bind to SH2 domain of SHP2, the PTP domain becomes available for substrate recognition and reaction catalysis and SHP2 is allosterically activated. SHP2 catalytic activity can be measured using a fluorogenic artificial substrate DiFMUP.
The phosphatase reactions were carried out at room temperature in 384-well black polystyrene plates (Greiner Bio-One, Cat #784076) using assay buffers containing 60 mM HEPES, pH 7.2, 75 mM NaCl, 75 mM KCl, 1 mM EDTA, 0.05% P-20, and 5 mM DTT.
0.33 nM of […] was co-incubated with of 0.5 μM of bisphos-IRS 1 peptide (sequence: H2N-LN(pY)IDLDLV(dPEG8)LST(pY)ASINFQK-amide) and various concentrations of compounds for 30-60 min at room temperature. Then the reaction was initiated by addition of the surrogate substrate DiFMUP (Invitrogen, Cat #D6567, 100 uM final).
The real-time conversion of DiFMUP to DiFMU (6,8-difluoro-7-hydroxyl-4-methyl-coumarin) was measured every 5 min for 30 min using a microplate reader (CLARIOstar, BMG Labtech) with excitation and emission wavelengths of 340 nm and 450 nm, respectively. Initial reaction rates were determined by linear fitting of the data and the inhibitor dose response curves were analyzed using normalized IC50 regression curve fitting with control based normalization.
As to `C[C@@H]1OCC2(CCN(c3ncc(Sc4ccnc5c4OC[C@@H]4C[C@H](O[C@@H]6CCOC6)CN54)nc3CO)CC2)[C@@H]1N` [Compound 28, (3-((3S,4S)-4-amino-3-methyl-2-oxa-8-azaspiro[4.5]decan-8-yl)-6-(((6aS,8S)-8-(((R)-tetrahydrofuran-3-yl)oxy)-6a,7,8,9-tetrahydro-6H-pyrido[3,2-b]pyrrolo[1,2-d][1,4]oxazin-4-yl)thio)pyrazin-2-yl)methanol], the IC50 turned out to be 12 nM. In the case of `CO[C@H]1C[C@H]2COc3c(Sc4cnc(N5CCC6(CC5)CO[C@@H](C)[C@H]6N)c(CO)n4)ccnc3N2C1` [Compound 16, (3-((3S,4S)-4-amino-3-methyl-2-oxa-8-azaspiro[4.5]decan-8-yl)-6-(((6aS,8S)-8-methoxy-6a,7,8,9-tetrahydro-6H-pyrido[3,2-b]pyrrolo[1,2-d][1,4]oxazin-4-yl)thio)pyrazin-2-yl)methanol], 8 nM corresponded to half-maximal inhibition (IC50).

On to `C[C@@H]1OCC2(CCN(c3ncc(Sc4ccnc5c4OC[C@@H]4C[C@@H](F)CN54)nc3CO)CC2)[C@@H]1N` [Compound 15, (3-((3S,4S)-4-amino-3-methyl-2-oxa-8-azaspiro[4.5]decan-8-yl)-6-(((6aS,8R)-8-fluoro-6a,7,8,9-tetrahydro-6H-pyrido[3,2-b]pyrrolo[1,2-d] [1,4]oxazin-4-yl)thio)pyrazin-2-yl)methanol], for which the IC50 was 5 nM. The result for `C[C@@H]1OCC2(CCN(c3ncc(Sc4ccnc5c4OC[C@@H]4C[C@@H](O)CN54)nc3CO)CC2)[C@@H]1N` [Compound 19, (6aS,8R)-4-((5-((3S,4S)-4-amino-3-methyl-2-oxa-8-azaspiro[4.5]decan-8-yl)-6-(hydroxymethyl)pyrazin-2-yl)thio)-6a,7,8,9-tetrahydro-6H-pyrido[3,2-b]pyrrolo[1,2-d][1,4]oxazin-8-ol] reads 8 nM. The result for `C[C@@H]1OCC2(CCN(c3ncc(Sc4ccnc5c4OC[C@@H]4C[C@H](F)CN54)nc3CO)CC2)[C@@H]1N` [Compound 14, (3-((3S,4S)-4-amino-3-methyl-2-oxa-8-azaspiro[4.5]decan-8-yl)-6-(((6aS,8S)-8-fluoro-6a,7,8,9-tetrahydro-6H-pyrido[3,2-b]pyrrolo[1,2-d] [1,4]oxazin-4-yl)thio)pyrazin-2-yl)methanol] reads 13 nM; that for `C[C@@H]1OCC2(CCN(c3ncc(Sc4ccnc5c4OC[C@@H]4C[C@H](O)CN54)nc3CO)CC2)[C@@H]1N` [Compound 18, (6aS,8S)-4-((5-((3S,4S)-4-amino-3-methyl-2-oxa-8-azaspiro[4.5]decan-8-yl)-6-(hydroxymethyl)pyrazin-2-yl)thio)-6a,7,8,9-tetrahydro-6H-pyrido[3,2-b]pyrrolo[1,2-d][1,4] oxazin-8-ol], 6 nM.

These data come from US11459340B2, “Tri-substituted heteroaryl derivatives as Src homology-2 phosphatase inhibitors” (Nikang Therapeutics, Inc., priority 2018, dated 2022).
